RP-LC retention time data for 59 molecules are collected here from the METLIN SMRT retention time set (Domingo-Almenara et al. 2019).

A short description of this data set: gradient 5% acetonitrile 3 min, to 50% in 2 min, to 85% in 15 min, held 3 min, 100 µL/min. Conditions: column: Zorbax Extend-C18 2.1 x 50 mm; eluents: water / acetonitrile, 0.1% formic acid. Put shortly: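 Pure standards were run in mixtures of ~100 molecules by HPLC coupled to a quadrupole time-of-flight mass spectrometer. The column was a Zorbax Extend-C18 (2.1 × 50 mm, 1.8 μm) at 100 μL/min, with water and acetonitrile each containing 0.1% formic acid, in positive and negative ionization mode. Dead and dwell volumes were 40 μL and 900 μL. Retention time was taken from computationally picked adduct peaks, each manually inspected, with data collected over 3 months.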
The molecule `Cc1ccc(-c2nc(NC(=O)CCCOc3ccc(Cl)cc3)sc2C)cc1` displayed an RP-LC retention time of 1250 s. Take `Cc1nn(C(C)C(=O)NC(C)C)c(=O)c2nn(-c3ccccc3)c(C)c12` (centres undefined): the RP-LC retention time is 739 s.

`COc1cccc(C(=O)Nc2nc(-c3ccc4c(c3)N(C)C(=O)CO4)c(C)s2)c1`: the RP-LC retention time was 978 s. Take `Cc1cc(Cl)ccc1S(=O)(=O)N1CCC(F)(c2nc(CC(C)C)no2)CC1`: the RP-LC retention time came to 1260 s. `CCCNC(=O)C1CCCN1C(=O)c1ccc(NC(=O)C(C)(C)C)cc1` (centres undefined) gave an RP-LC retention time of 683 s.

Take `O=C(NC1CCCCC1)c1cccc(Nc2c(-c3ccccc3)nc3cnccn23)c1`: the RP-LC retention time was found to be 838 s.

In turn, `Cc1cc2ccccc2n1CCNC(=O)C(=O)c1cn(CC(=O)N2CCCC2)c2ccccc12` displayed an RP-LC retention time of 1010 s.

As for `O=C(Nc1ccc(F)cc1F)Nc1nccn(-c2ccc(F)cc2)c1=O`, the RP-LC retention time is 942 s. To `CC(C(=O)NCCCN1CCCC1=O)C1CCN(C(=O)c2cc3cc(Cl)ccc3[nH]2)CC1` (centres undefined) belongs 698 s; to `COc1ccc(-c2noc(C3CCCN3C(=O)Nc3ccc4c(c3)OCCO4)n2)cc1` (centres undefined), 752 s; to `O=c1[nH]c(-c2cccc(O)c2)nc2sc3c(c12)CCCC3`, 830 s.

In turn, `O=C(NCc1ccc2c(c1)OCO2)c1nn(-c2ccccc2)c2ccccc2c1=O` returned an RP-LC retention time of 831 s.

For `COc1ccc(CC(=O)N2C[C@@H]3C[C@H]2C[C@@H]3NS(=O)(=O)c2ccccc2)cc1`, the RP-LC retention time is 768 s. For `Cc1ccc(S(=O)(=O)N2CCC3(CCN(c4cccnc4)C3)C2)c(C)c1` (centres undefined) the value was 684 s; for `CC(C(=O)NCCSc1nncn1C)n1nnc2ccccc2c1=O` (centres undefined), 578 s; for `O=C(c1ccoc1)N1CCN(c2cc(-c3ccc(Cl)cc3)[nH]n2)CC1`, 774 s. `CC(C)C(=O)N1CCc2c(c(C(=O)N3CCC(C(=O)N4CCCCCC4)CC3)nn2C)C1`: the RP-LC retention time turned out to be 656 s. In turn, `CC(C)C(=O)Nc1ccc(CCc2nc3ccc(C(=O)NC4CCCC4)cc3[nH]2)cc1` yielded an RP-LC retention time of 650 s. For `CCC(C)NC(=O)Cn1cccc(-c2nc(-c3ccc(Cl)cc3)no2)c1=O` (centres undefined) the value was 852 s. For `CCCOc1nc2ccccc2nc1N1CCCC(C(=O)NC2CC2)C1` (centres undefined) the value was 1010 s; for `COc1ccc(-c2nc(Cn3c(=O)c4c(C)cc(C)nc4n(C)c3=O)c(C)o2)cc1`, 1200 s; for `CCC(=O)N1CCc2sc(C(=O)N3CCN(c4cccc(Cl)c4)CC3)cc2C1`, 900 s. To `COc1cccc(NC(=O)Cn2nc3c(N4CCCCCC4)nccn3c2=O)c1` belongs 700 s; to `CC1=Nc2ccccc2N=C(NC(=O)Nc2cccc(Cl)c2)C1c1ccc(Cl)cc1` (centres undefined), 1170 s. The molecule `O=C(c1cn[nH]c1)N1CCCC1Cc1noc(C2CCCC2)n1` (centres undefined) gave an RP-LC retention time of 692 s. To `Cc1cc(C)n(CCNC(=O)CSCc2ccccc2)n1` belongs 683 s; to `COc1ccc(NC(=O)Cn2nc3nc(N4CCCC(C)C4)ccn3c2=O)cc1OC` (centres undefined), 844 s. To `COCC1CN(S(=O)(=O)c2cccc(C#N)c2)CCC1(F)F` (centres undefined) belongs 892 s; to `O=C(c1ccc(F)c(F)c1)N1CCN(CCn2cccn2)CC1`, 543 s; to `CCCN(CCC)[C@@H]1CCc2ccc(O)cc2C1`, 671 s. Take `COc1ccccc1NC(=O)N1CCC2(CC1)N=C(c1cccc(F)c1)C(=O)N2`: the RP-LC retention time worked out at 840 s. For `Cc1ccccc1Cn1cc(-c2ccncc2)cc1C(=O)N1CCN(C2CCCCC2)CC1` the value was 586 s; for `CN(C)C(=O)c1ccc2c(c1)N(CC(=O)Nc1cccnc1)C(=O)CO2`, 572 s; for `O=C(NCc1ccc(N2CCCCC2)cc1)c1ccc2ncnc(N3CCCC3)c2c1`, 561 s. `Cc1nnc(CNC(=O)C(=O)Nc2ccon2)o1` had an RP-LC retention time of 534 s. As to `COCCC(=O)Nc1ccc(-c2nc(Cn3nc(C)cc3C)c(C)o2)cc1`, the RP-LC retention time was determined as 729 s. As for `Cc1cc(C)n2nc(CN(C(=O)c3ccco3)c3ccc(F)cc3)nc2n1`, the RP-LC retention time was 715 s. The molecule `CS(=O)(=O)N1CCCc2cc(C(=O)Nc3cccc(Br)c3)ccc21` had an RP-LC retention time of 984 s. `COc1ccc(S(=O)(=O)Cc2nc(-c3ccc(Br)cc3)no2)cc1` gave an RP-LC retention time of 1040 s. Molecule `CCn1cnc(S(=O)(=O)N2CCC(C(=O)Nc3nc4ccc(C)cc4s3)CC2)c1` gave an RP-LC retention time of 812 s.

The molecule `CC(NC(=O)c1ccc2c(c1)OCO2)C(=O)N1CCN(c2ccccn2)CC1` (centres undefined) displayed an RP-LC retention time of 580 s. On to `CCC1CCCCN1C(=O)c1cnc2nc(C)ccc2c1Nc1ccccc1OC` (centres undefined), for which the RP-LC retention time was 661 s.

Molecule `COc1ccc(-c2nnc(-c3ccc(Cl)c(S(=O)(=O)N(C)C)c3)o2)cc1OC` returned an RP-LC retention time of 904 s. To `CCN1CCC2(CC1)OC(=O)C(C)=C2C(=O)NCCCN1CCC(Cc2ccccc2)CC1` belongs 583 s; to `CCN1CCN(CC2CCN(S(=O)(=O)Cc3c(F)cccc3Cl)CC2)CC1`, 611 s. For `Cc1nc([C@@H]2CN(C(=O)CCc3nc4ccccc4[nH]3)C[C@H]2C(N)=O)n[nH]1` the value was 506 s; for `CC(C)N1CCC(c2nnc3n2CCN(S(=O)(=O)c2ccccc2C(F)(F)F)C3)C1` (centres undefined), 631 s. To `Cc1sc2ccn(CC(C)C)c(=O)c2c1C(=O)NCc1cc(F)cc(F)c1` belongs 1070 s; to `CCN(CC)CCOc1ccc(Nc2ncc3cc(-c4c(Cl)cccc4Cl)c(=O)n(C)c3n2)cc1`, 783 s; to `O=C(NCc1cccs1)C(=O)Nc1ccncc1`, 548 s. With `O=C(c1ccc(OCC2CCCN2C(=O)c2ccc(Cl)cc2)cc1)N1CCOCC1` (centres undefined), the RP-LC retention time came to 795 s. For `CC1(O)CCOC2(CCN(C(=O)C3CCCC3)CC2)C1` (centres undefined), the RP-LC retention time was 662 s. `CCCn1cc(CCNC(=O)Cc2ccccc2Cl)c2cccnc21` registered an RP-LC retention time of 770 s. For `CCN1CCN(c2cc(C)c3cc(NC(=S)NCCC(C)C)ccc3n2)CC1`, the RP-LC retention time worked out at 588 s.

`COc1cc([C@@H]2c3cc4c(cc3[C@H](O)[C@@H](CO)[C@@H]2C(=O)NCc2ccc(F)cc2)OCO4)cc(OC)c1OC`: the RP-LC retention time was 720 s. For `CC(=O)N1CCC(CC(=O)N2CCc3nn(CC4CC4)c(=O)n3CC2)CC1` the value was 596 s; for `CCNC(=O)N1CCc2nc(OCC)ccc2C1`, 606 s; for `COc1cccc(NC(=O)Cn2nc3c(Oc4ccccc4Cl)nccn3c2=O)c1`, 865 s.

The molecule `NC(=O)CS(=O)C(c1ccccc1)c1ccccc1` (centres undefined) displayed an RP-LC retention time of 710 s.
